# Laboratory results: US12595251B2, “Amidines and amidine analogs for the treatment of bacterial infections and potentiation antibiotics” (GEORGIA STATE UNIVERSITY RESEARCH FOUNDATION, INC., priority 2018, dated 2026)
# “And” between values parts separate entries of the source, which are not always exact repeats. Equal values may be shown once. Where a name gives a salt, the structure may show the parent alone. Read-outs that look alike come from different tables or passages of the source.
# Experiments:
# E. coli = assay: Sensitization of E. coli to erythromycin (sensitization fold from IC90, OD600, 20 h); format: cell-based, Escherichia coli; settings: general statement on amidine substitution or ring restraint
# Procedure: E. coli bacteria were cultured in Miller's broth at 37° C. overnight prior to treatment. B. subtilis bacteria were cultured in nutrient broth at 37° C. overnight prior to treatment. […] Bacterial density was measured based on OD600.
# B. subtilis = B. subtilis viability with antibiotic in absence or presence of compound (OD600, 20 h); format: cell-based, Bacillus subtilis; settings: M-1 12.5 or 6 μM; A-2 6 or 12.5 μM; A-8; 20 h
# Procedure: Bacterial viability was then determined by measuring density using OD600. […] B. subtilis was also cultured with either novobiocin or tetracycline at varying concentrations either in the absence or presence of compound M-1 (12.5 μM) for 20 hours. Bacterial viability was subsequently determined by measuring density using OD600.
# Bacterial viability was then determined by measuring density using OD600.
# wild type B. subtilis [1] = assay: Sensitization of B. subtilis toward antibiotics (MIC, OD600, 24 h); format: cell-based, Bacillus subtilis; settings: for Sensitization effect on B. subtilis: compound at 10 μg/ml; for MIC of antibiotic on B. subtilis in the presence of Compound M-1: 5.5 μg/ml Compound M-1
# Procedure: FIG. 22A is a bar graph showing that Compound M-1 sensitizes B. subtilis towards rifampicin as described in Example 13. Bacteria was cultured with rifampicin at various concentrations in the presence or absence of Compound M-1 for 24 hours at 37° C. and bacterial growth density was determined by measuring OD600. The y-axis is growth density measured in percent. The x-axis is rifampicin concentration measured in micrograms per milliliter (***: p<0.01).
# Compound M-1 can sensitize Gram-positive bacteria such as B. subtilis towards traditional antibiotics. […] The sensitization fold is 32-fold for Compound M-1 and the FIC index is 0.14.
# MRSA = assay: Sensitization of MRSA toward antibiotics (OD600, 24 h); format: cell-based, Staphylococcus aureus; settings: for Sensitization fold, MRSA towards rifampicin: compound at 10 μg/ml
# Procedure: Bacteria was cultured with rifampicin at various concentrations in the presence or absence of Compound M-1 for 24 hours at 37° C. and bacterial growth density was determined by measuring OD600. The y-axis is growth density measured in percent. The x-axis is rifampicin concentration measured in micrograms per milliliter (***: p<0.01).
# Compound M-1 (2.7 μg/ml) sensitizes MRSA towards existing antibiotics such as rifampicin (32-fold) (FIG. 22B) and trovafloxacin (16-fold). Rifampicin is the first line of defense against MRSA and many MRSA stains grow resistance to rifampicin through overexpression of efflux pump and other mechanisms. Combined with Compound M-1, rifampicin can be used more effectively against MRSA.
# wild type B. subtilis [2] = assay: Sensitization of B. subtilis toward antibiotics (MIC, OD600, 24 h); format: cell-based, Bacillus subtilis
# wild-type E. coli = assay: Sensitization of wild-type E. coli toward antibiotics (MIC of antibiotic with/without sensitizer); format: cell-based, Escherichia coli; settings: for MIC: Escherichia coli; for FIC: fractional inhibitory concentration, antibiotic plus Compound C 5 μg/ml
# Procedure: Bacteria were cultured with the antibiotic at various concentrations in the presence or absence of bacterial sensitizer for 24 hours at 37° C. Bacterial growth density was determined by measuring OD600 (absorbance measured at a wavelength of 600 nm). […]
# The formula for calculating FIC is shown below: […]
# [3] = test system: NDM-1 over-expressing E. coli; assay: microbe, parasite or virus in culture; format: cell-based, Escherichia coli; settings: for Sensitization fold: MIC of antibiotic only / MIC with Compound C 5 μg/ml; for FIC / MIC of AB with Compound C (5 μg/ml): antibiotic plus Compound C 5 μg/ml
# E. coli and MRSA = assay: Relative ratio of E. coli and MRSA under trovafloxacin with/without Compound A-8; format: cell-based, Escherichia coli; Staphylococcus aureus; settings: trovafloxacin (16 ng/ml) alone
# Text: FIG. 23A is a comparison of the relative ratio of E. coli and MRSA treated with the antibiotic trovafloxacin in the absence (pie chart on the left) and in the presence (pie chart on the right) of Compound A-8 as described in Example 14. In the absence of Compound A-8, trovafloxacin preferred to inhibit E. coli and the bacterial population was 78% MRSA. However, Compound A-8 sensitizes trovafloxacin to MRSA.
# As a proof of concept, the relative ratio of E. coli and MRSA (FIG. 23A) or B. subtilis and MRSA (FIG. 23 B) was measured with and without Compound A-8. […] However, when trovafloxacin (8 ng/ml) is supplied with 1.5 μg/ml of Compound A-8, MRSA inhibition was achieved and E. coli was the dominant species (89% of the bacteria population).
# H9c2 cells = assay: Cytotoxicity in H9c2 cells (CCK-8, 24 h); format: cell-based
# Procedure: (§1) H9c2 (ATCC®R-1446™) cells Were used in the studies. The H9c2 cells were maintained in DMEM (Dulbeccoa's Modified Eagle's Medium) supplemented with 10% fetal bovine serum (Mid Sci; S01520HI) and 1% penicillin-streptomycin (Sigma-Aldrich; P4333) at 37° C. with 5% CO2. The H9c2 cells were seeded in 96-well plate one day before the experiment. Different concentrations of di-amidine compounds were added into the H9c2 cells. The cells were then incubated with the compounds for 24 h at 37° C. with 5% CO2. The cell viability was tested by the CCK-8. Specifically, after 24 h incubation, 10 μL CCK-8 was added to each well. After 3 h incubation at 37° C., the absorbance at 450 nm was recorded by a plate reader. The cytoxicity in HEK293 and 3T3 cells was measured using the same procedure. Data is shown in Table 5 (NT=not toxic; --=not tested).
# HEK293 cells = assay: Cytotoxicity in HEK293 cells (CCK-8, 24 h); format: cell-based; settings: for HEK293 cytotoxicity at 100 μM ("100 μM result in x%"): NT=not toxic
# Procedure: as §1
# 3T3 cells = assay: Cytotoxicity in 3T3 cells (CCK-8, 24 h); format: cell-based; settings: for 3T3 cytotoxicity at 100 μM ("100 μM result in x%"): NT=not toxic
# Procedure: as §1
# [4] = antibiotic alone, wild-type E. coli, read-out: MIC of AB only
# [5] = read-out: MIC of AB with Compound C (5 μg/ml), antibiotic plus Compound C 5 μg/ml, wild-type E. coli
# [6] = 24 h, antibiotic alone, wild-type E. coli, read-out: MIC of AB only
compound,measurement,setting,value
"Cc1cc(COc2ccc(C3=NCCN3)cc2)cc(COc2ccc(C3=NCCN3)cc2)c1 [Compound A-2, 2,2′-((((5-Methyl-1,3-phenylene)bis(methylene))bis(oxy))bis(4,1-phenylene))bis(4,5-dihydro-1H-imidazole) Dihydrochloride]",Ability to sensitize Gram-negative bacteria (while preserving ability to sensitize some Gram-positive bacteria),E. coli,"greatly decrease, or even abolish"
same,"B. subtilis growth inhibition, compound in combination with erythromycin vs erythromycin alone",B. subtilis,significant bacterial growth inhibition
"Cc1cc(COc2ccc(C3=NCCCN3)cc2)cc(COc2ccc(C3=NCCCN3)cc2)c1 [Compound B-21, 2,2′-((((5-Methyl-1,3-phenylene)bis(methylene))bis(oxy))bis(4,1-phenylene))bis(1,4,5,6-tetrahydropyrimidine) dihydrochloride]",Ability to sensitize Gram-negative bacteria (while preserving ability to sensitize some Gram-positive bacteria),E. coli,"greatly decrease, or even abolish"
same,Sensitization effect on B. subtilis,wild type B. subtilis [1],no effect
same,"Sensitization fold, MRSA towards rifampicin",MRSA,16 fold
"Cc1cc(COc2ccc(CN)cc2)cc(COc2ccc(CN)cc2)c1 [Compound E-11, 1,3-Bis {(4-methanamine)-phenoxymethyl}-5-methylbenzene dihydrochloride]",Sensitization effect on MRSA,MRSA; compound at 5 μg/ml,no effect
same,"Sensitization fold, B. subtilis towards erythromycin",wild type B. subtilis [2]; compound at 5 μg/ml,32 fold
"CCCNC(=N)c1ccc(COc2cc(C)cc(OCc3ccc(C(=N)NCCC)cc3)c2)cc1 [Compound E-13, 1,3-Bis {(4-n-propylamidino)-benzyloxy}-5-methylbenzene dihydrochloride]",Ability to sensitize Gram-negative bacteria (while preserving ability to sensitize some Gram-positive bacteria),E. coli,"greatly decrease, or even abolish"
same,Sensitization effect on B. subtilis,wild type B. subtilis [1],no effect
same,"Sensitization fold, MRSA towards rifampicin",MRSA,16 fold
"CC[C@H]1OC(=O)[C@H](C)[C@@H](O[C@H]2C[C@@](C)(OC)[C@@H](O)[C@H](C)O2)[C@H](C)[C@@H](O[C@@H]2O[C@H](C)C[C@H](N(C)C)[C@H]2O)[C@](C)(O)C[C@@H](C)C(=O)[C@H](C)[C@@H](O)[C@]1(C)O [Erythromycin, erythromycin]",MIC,wild-type E. coli; [4],50 µg/mL
same,MIC,wild-type E. coli; [5],0.4 µg/mL
same,FIC,wild-type E. coli; wild-type E. coli,0.11
same,MIC of antibiotic on B. subtilis in the presence of Compound M-1,wild type B. subtilis [1],1.5 µg/mL
same,MIC of antibiotic on B. subtilis in the absence of Compound M-1,wild type B. subtilis [2]; antibiotic alone,50 µg/mL
"CO[C@H]1/C=C/O[C@@]2(C)Oc3c(C)c(O)c4c(O)c(c(/C=N/N5CCN(C)CC5)c(O)c4c3C2=O)NC(=O)/C(C)=C\C=C\[C@H](C)[C@H](O)[C@@H](C)[C@@H](O)[C@@H](C)[C@H](OC(C)=O)[C@@H]1C [Rifampicin, rifampicin]",MIC,wild-type E. coli; [6],10 µg/mL
same,MIC,wild-type E. coli; [4],10 µg/mL
same,MIC,wild-type E. coli; [5],0.02 µg/mL
same,Sensitization fold,"wild-type E. coli; MIC of antibiotic only / MIC of antibiotic with Compound C 5 μg/ml, wild-type E. coli",516 and 512
same,FIC,wild-type E. coli; wild-type E. coli,0.11 and 0.10
same,Sensitization fold,[3],516
same,FIC,[3],0.11
same,MIC of AB with Compound C (5 μg/ml),[3],0.019 µg/mL
same,MIC of antibiotic on B. subtilis in the presence of Compound M-1,wild type B. subtilis [1],0.037 µg/mL
"N[C@@H]1[C@H]2CN(c3nc4c(cc3F)c(=O)c(C(=O)O)cn4-c3ccc(F)cc3F)C[C@@H]12 [Trovafloxacin, trovafloxacin]",MIC,wild-type E. coli; [6],0.05 µg/mL
same,MIC,wild-type E. coli; [4],0.05 µg/mL
same,MIC,wild-type E. coli; [5],0.0015 µg/mL
same,FIC,wild-type E. coli; wild-type E. coli,0.13
same,MIC,"[3]; Escherichia coli, antibiotic alone, read-out: MIC of AB only",0.025 µg/mL
same,Sensitization fold,[3],32
same,FIC,[3],0.13
same,MIC of AB with Compound C (5 μg/ml),[3],0.0008 µg/mL
same,MRSA share of the bacteria population (E. coli + MRSA),E. coli and MRSA,78%
N=C(N)c1ccc(OCc2cccc(COc3ccc(C(=N)N)cc3F)c2F)c(F)c1 [drawing 854],H9c2 CC^50,H9c2 cells,50 µM
same,HEK293 CC^50,HEK293 cells,100 µM
same,"3T3 cytotoxicity at 100 μM (""100 μM result in x%"")",3T3 cells,100 μM result in 30%
Cc1cc(COc2ccc(C(=N)N)cc2)cc(COc2ccc(C(=N)N)cc2)c1 [drawing 863],H9c2 CC^50,H9c2 cells,50 µM
same,"HEK293 cytotoxicity at 100 μM (""100 μM result in x%"")",HEK293 cells,100 μM result in 20%
same,"3T3 cytotoxicity at 100 μM (""100 μM result in x%"")",3T3 cells,100 μM result in 20%
Cc1cc(COc2ccc(C3=NCCN3)cc2)cc(COc2ccc(C3=NCCN3)cc2)c1 [drawing 864],H9c2 CC^50,H9c2 cells,25 µM
same,3T3 CC^50,3T3 cells,25 µM
N=C(N)c1ccc(OCc2ccc(COc3ccc(C(=N)N)cc3)cc2)cc1 [drawing 869],H9c2 CC^50,H9c2 cells,50 µM
same,"HEK293 cytotoxicity at 100 μM (""100 μM result in x%"")",HEK293 cells,100 μM result in 30%
same,"3T3 cytotoxicity at 100 μM (""100 μM result in x%"")",3T3 cells,100 result in 10%
COc1cc(C(=N)N)ccc1OCc1cc(C)cc(COc2ccc(C(=N)N)cc2OC)c1 [drawing 871],"HEK293 cytotoxicity at 100 μM (""100 μM result in x%"")",HEK293 cells,100 μM result in 10%
Cc1cc(COc2ccc(CN)cc2)cc(COc2ccc(CN)cc2)c1 [drawing 874],HEK293 CC^50,HEK293 cells,25 µM
same,3T3 CC^50,3T3 cells,25 µM
N=C(N)c1ccc(OCc2cc(COc3ccc(C(=N)N)cc3)cc(COc3ccc(C(=N)N)cc3)c2)cc1 [drawing 875],"HEK293 cytotoxicity at 100 μM (""100 μM result in x%"")",HEK293 cells,100 μM result in 10%
Cc1cc(CCc2ccc(C(=N)N)cc2)cc(CCc2ccc(C(=N)N)cc2)c1 [drawing 876],HEK293 CC^50,HEK293 cells,50 µM
same,3T3 CC^50,3T3 cells,50 µM
Cc1cc(OCc2ccc(C(=N)N)cc2)cc(OCc2ccc(C(=N)N)cc2)c1 [drawing 877],"3T3 cytotoxicity at 100 μM (""100 μM result in x%"")",3T3 cells,100 UM result in 10%
COc1cc(C(=N)N)ccc1OCc1cc(COc2ccc(C(=N)N)cc2OC)cc(C(C)(C)C)c1 [drawing 882],"HEK293 cytotoxicity at 100 μM (""100 μM result in x%"")",HEK293 cells,100 μM result in 20%
Cc1cc(COc2cccc(C(=N)N)c2)cc(COc2cccc(C(=N)N)c2)c1 [drawing 884],"HEK293 cytotoxicity at 100 μM (""100 μM result in x%"")",HEK293 cells,100 μM result in 20%
